From paper PMC6354023, “A phase I study of the HDM2 antagonist SAR405838 combined with the MEK inhibitor pimasertib in patients with advanced solid tumours” (British Journal of Cancer, 2018)
Read-outs that look alike come from different tables or passages of the source.

Experiments:
[1] = Safety assessments: adverse events (NCI-CTCAE v4.03), laboratory abnormalities; format: in vivo, human; conditions: of 26 treated patients, in combination
Experimental: Safety was assessed by the evaluation of AEs, DLTs, changes in vital signs, ECOG PS, physical examinations,12-lead electrocardiograms, determination of LVEF, ophthalmological examinations and clinical laboratory tests (including haematology, coagulation, blood chemistry and urinalysis).

[2] = Pharmacokinetics of SAR405838 (whole-blood concentrations) in combination; format: in vivo, human; conditions: SAR405838 and pimasertib administered in combination
Text: (§1) Blood samples were collected on Days 1 (for pimasertib only), 2, 3, 8 and 15 of Cycle 1, on Days 1 and 2 of Cycle 2, and on Day 1 of Cycles 3 and 4, to determine the whole-blood and plasma concentrations of SAR405838 and pimasertib, respectively.

[3] = Pharmacokinetics of pimasertib (plasma concentrations) in combination; format: in vivo, human; conditions: for AUC(0-t) / Cmax / half-life / Tmax: human, plasma, oral; for AUC(0-t): read-out: Pimasertib AUC0–12, mean ± SD; for Cmax: read-out: Pimasertib Cmax, mean ± SD; for half-life: read-out: Pimasertib t1/2 (converted); for Tmax: read-out: Pimasertib tmax, median (range)
Text: as §1

[4] = tested on: pERK; test: pERK levels in PMA-stimulated PBMCs by flow cytometry; format: in vivo, human
Experimental: MIC-1 protein concentrations were measured in plasma samples using an analytically validated enzyme-linked immunosorbent assay (Quantikine® Human GDF-15 immunoassay). pERK levels were determined by evaluating median value changes in response to ex vivo stimulation with or without phorbol myristate acetate (PMA) over time in whole-blood samples (CD 45^+ and lymphocyte populations) by flow cytometry (BD FACSCanto™ II instrument). Stimulated pERK levels were calculated as percentage (PMA-dimethylsulphoxide [DMSO])/DMSO).

[5] = set-up: method as in doi:10.1016/S0959-8049(12)72401-2; conditions: cited from earlier work
[6] = DL1 SAR405838 200 mg QD + pimasertib 45 mg BID, C1D2
[7] = DL1 SAR405838 200 mg QD + pimasertib 45 mg BID, C2D1
[8] = DL2a SAR405838 200 mg QD + pimasertib 60 mg QD, C1D1
[9] = DL2a SAR405838 200 mg QD + pimasertib 60 mg QD, C1D2
[10] = DL2b SAR405838 300 mg QD + pimasertib 45 mg BID, C1D1
[11] = DL2b SAR405838 300 mg QD + pimasertib 45 mg BID, C1D2
[12] = DL2b SAR405838 300 mg QD + pimasertib 45 mg BID, C2D1
[13] = DL3a SAR405838 300 mg QD + pimasertib 60 mg QD, C1D1
[14] = DL3a SAR405838 300 mg QD + pimasertib 60 mg QD, C1D2
[15] = DL3a SAR405838 300 mg QD + pimasertib 60 mg QD, C2D1
[16] = DL1 SAR405838 200 mg QD + pimasertib 45 mg BID, C1D1
[17] = DL2a SAR405838 200 mg QD + pimasertib 60 mg QD, C2D1

## O=C(NC[C@H](O)CO)c1ccncc1Nc1ccc(I)cc1F [pimasertib]
[1]
  Patients with dose modification, reduction or omission: 18 patients
[2]
  PK in combination compared with PK as monotherapy: similar
[3]; [6]
  Pimasertib tmax, median (range): 1.5 [0.5–2] (7) h
  AUC(0-t): 689 ± 324 ng·h/mL
  Cmax: 200 ± 102 ng/mL
[3]; [7]
  Pimasertib tmax, median (range): 1.5 [0.5–1.5] (6) h
  AUC(0-t): 862 ± 350 ng·h/mL
  Cmax: 226 ± 70.6 ng/mL
[3]; [8]
  Pimasertib AUC0–12, mean ± SD: 1120 ± 410 (4; 37) ng.h/mL
  Pimasertib tmax, median (range): 1.5 [0.5–1.5] (4) h
  Cmax: 301 ± 69.9 ng/mL
  half-life: 5.38 ± 0.276 h
[3]; [9]
  Pimasertib AUC0–12, mean ± SD: 1130 ± 422 (4; 37) ng.h/mL
  Cmax: 303 ± 134 ng/mL
  Tmax: 1 h
[3]; [10]
  Pimasertib tmax, median (range): 1.5 [0.5–1.5] (7) h
  AUC(0-t): 779 ± 594 ng·h/mL
  Cmax: 184 ± 109 ng/mL
  half-life: 4.71 ± 1.39 h
[3]; [11]
  Pimasertib tmax, median (range): 1.5 [1.5–2] (7) h
  AUC(0-t): 684 ± 367 ng·h/mL
  Cmax: 182 ± 110 ng/mL
[3]; [12]
  Pimasertib tmax, median (range): 1.5 [0.5–2] (6) h
  AUC(0-t): 532 ± 166 ng·h/mL
  Cmax: 147 ± 93.8 ng/mL
[3]; [13]
  Pimasertib t1/2: 5.25 ± 1.83 (7; 35) h
  AUC(0-t): 935 ± 469 ng·h/mL
  Cmax: 221 ± 98.3 ng/mL
  Tmax: 1 h
[3]; [14]
  Pimasertib tmax, median (range): 1.5 [0.5-2] (7) h
  AUC(0-t): 917 ± 390 ng·h/mL
  Cmax: 200 ± 84.4 ng/mL
[3]; [15]
  Pimasertib tmax, median (range): 1.5 [0.5–1.5] (5) h
  AUC(0-t): 765 ± 314 ng·h/mL
  Cmax: 243 ± 65.4 ng/mL
[3]; between DL1/DL2b (pimasertib 45 mg BID) and DL2a/DL3a (pimasertib 60 mg BID)
  Exposure change with dose increase (33%): resulted in pimasertib exposure increase
[3]; [16]
  AUC(0-t): 755 ± 382 ng·h/mL
  Cmax: 218 ± 108 ng/mL
  half-life: 4.76 ± 1.17 h
  Tmax: 0.5 h
[3]; [17]
  AUC(0-t): 1040 ± 504 ng·h/mL
  Cmax: 269 ± 134 ng/mL
[4]
  Time pERK inhibition was maintained: 4 h
[4]; C1D1, C1D2 and C2D1, at or around tmax of pimasertib, at most DLs
  pERK inhibition: ≥ 80%
[5]; BID
  Recommended phase II dose, monotherapy: 60 mg
[5]; once daily
  MTD, monotherapy, QD regimen: 90 mg
[5]; phase I dose-escalation trial
  DLTs, monotherapy: skin rash, acneiform dermatitis, ocular events and stomatitis
[5]; twice daily
  MTD, monotherapy, BID regimen: 60 mg
